The values that follow come from patent publication US8101761B2, “(E)-N-{3-[1-(8-fluoro-11H-10-OXA-1-AZA-dibenzo [A,D] cyclohepten-5ylidene)-propyl]-phenyl}-methanesulfonamide as glucocorticoid receptor modulator for the treatment of rheumatoid arthritis” (Eli Lilly and Company, priority 2008, dated 2012).

Read-outs that look alike come from different tables or passages of the source. Where only a bound is given, the exact number is not on record here.

In experiment [1] the target is T1, human AR (androgen receptor) (Homo sapiens, UniProt P10275).
T1 construct: expressed in transfected cells; host or cells: HEK293 (293-AR lysate)
T1 sequence (P10275 1-920): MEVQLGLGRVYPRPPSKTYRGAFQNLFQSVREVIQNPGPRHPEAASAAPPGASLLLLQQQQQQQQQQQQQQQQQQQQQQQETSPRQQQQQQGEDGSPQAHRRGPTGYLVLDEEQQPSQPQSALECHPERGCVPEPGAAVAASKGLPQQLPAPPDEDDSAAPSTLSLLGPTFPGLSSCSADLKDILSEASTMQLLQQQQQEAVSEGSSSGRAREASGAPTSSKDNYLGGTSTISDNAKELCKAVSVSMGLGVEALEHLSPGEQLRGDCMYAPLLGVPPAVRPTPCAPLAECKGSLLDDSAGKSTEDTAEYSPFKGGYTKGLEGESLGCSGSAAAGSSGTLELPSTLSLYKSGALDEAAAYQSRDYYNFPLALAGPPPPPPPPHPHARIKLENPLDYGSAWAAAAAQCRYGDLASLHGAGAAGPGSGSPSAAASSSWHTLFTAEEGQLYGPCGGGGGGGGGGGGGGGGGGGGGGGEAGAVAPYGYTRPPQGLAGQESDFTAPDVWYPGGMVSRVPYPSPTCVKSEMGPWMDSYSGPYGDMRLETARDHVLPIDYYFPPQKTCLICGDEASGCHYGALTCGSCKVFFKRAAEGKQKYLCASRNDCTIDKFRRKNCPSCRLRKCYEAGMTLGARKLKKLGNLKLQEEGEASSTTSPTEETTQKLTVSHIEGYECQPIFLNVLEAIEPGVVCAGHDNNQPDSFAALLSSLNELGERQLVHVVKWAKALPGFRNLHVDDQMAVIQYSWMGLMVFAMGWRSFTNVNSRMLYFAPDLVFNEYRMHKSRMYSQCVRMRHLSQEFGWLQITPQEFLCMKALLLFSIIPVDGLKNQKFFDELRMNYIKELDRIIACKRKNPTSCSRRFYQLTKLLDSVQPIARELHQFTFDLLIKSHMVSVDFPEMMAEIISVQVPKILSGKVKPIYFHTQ
Description: Nuclear hormone receptor competition binding assay, AR. Conditions: HEK293 lysate overexpressing human AR, [3H]-methyltrienolone; mean of n=7. The procedure: Cell lysates from human embryonic kidney HEK293 cells overexpressing human GR (glucocorticoid receptor), AR (androgen receptor), MR (mineralocorticoid receptor), or PR (progesterone receptor) are used for receptor-ligand competition binding assays to determine Ki values.
Briefly, steroid receptor competition binding assays are run in a buffer containing 20 mM Hepes buffer (pH=7.6), 0.2 mM EDTA, 75 mM NaCl, 1.5 mM MgCl2, 20% glycerol, 20 mM sodium molybdate, 0.2 mM DTT (dithiothreitol), 20 μg/ml aprotinin and 20 μg/ml leupeptin. Typically, steroid receptor binding assays include radio-labeled ligands, such as 0.3 nM [^3H]-dexamethasone for GR binding, 0.36 nM [^3H]-methyltrienolone for AR binding, 0.25 nM [^3H]-aldosterone for MR binding, and 0.29 nM [^3H]-methyltrienolone for PR binding, and either 20 μg 293-GR lysate, 22 μg 293-AR lysate, 20 μg 293-MR lysate or 40 μg 293-PR lysate per well. Assays are typically run in 96-well format. Competing test compounds are added at various concentrations ranging from about 0.01 nM to 10 μM. Non-specific binding is determined in the presence of 500 nM dexamethasone for GR binding, 500 nM aldosterone for MR binding, or 500 nM methyltrienolone for AR and PR binding. […] After an incubation of 2 hours, plates are read in a Wallac Microbeta counter. […]

In experiment [2] the test system is TNF-α production in PMA-differentiated U937 cells. Description: GR-mediated transrepression: LPS-stimulated TNF-α production in PMA-differentiated U937 cells. Format: cell-based, human. The method, then:
2. LPS-Stimulated TNF-α Production in PMA-Differentiated U937 Cells:
Human U937 pre-monocytic cells, obtained from ATCC, are grown in complete RPMI 1640 medium containing 10% FBS. To allow monocytes to differentiate to adherent macrophages, U937 cells are washed in calcium, magnesium free and resuspended in fresh RPMI medium containing 20 nM phorbol 12-myristate-13-acetate (PMA) overnight. After differentiation, test compounds are added to the cells in the 96-well plate at various concentrations ranging from about 4.65 pM to 4.64 μM. 1-hour post treatment with test compound, LPS is added at final concentration of 100 ng/ml and the reaction mixture is incubated overnight. 25 μl cell-free supernatant is transferred from each well to another 96-well plate and TNF-α production is measured using an ELISA kit with TNF-α being quantified by reading absorbance at 450 nm.

Experiment [3] relates to carrageenan-induced paw edema in male Sprague-Dawley rats. Description: Carrageenan-induced paw edema (CPE) model. Conditions: rat, oral gavage 2 h before carrageenan, paws taken 3 h after, mean of 5 determinations. Format: in vivo. An excerpt: Carrageenans are a group of polysaccharides which can induce an acute inflammatory response in animals. Cardinal signs of inflammation including edema, hyperalgesia and erythema are developed in the injection site immediately following injection. The CPE model is a recognized model of inflammation and can be used to evaluate the anti-inflammatory effects of glucocorticoid receptor ligands.
To evaluate the anti-inflammatory effects of Compound (I), the compound is formulated in a vehicle comprising 0.5% carboxymethyl cellulose and 0.25% Tween 80 then administered orally via gavage to male Sprague-Dawley rats (180-200 g). For comparison, prednisolone may be administered orally in the same vehicle. Two hours later, 1% carrageenan in 50 μl of 0.9% pyrogen free saline is injected into the subplantar regions of the right hind paw. Rats are euthanized by CO2 at 3 hours after the carrageenan injection. Paws are removed then weighed using a microbalance. Paws are then dissected by making several cuts on the paw surface and immediately immersing into liquid nitrogen until frozen. Frozen paws are then centrifuged to extract the exudates. Exudate levels of IL-1β, a cytokine generated during the inflammatory response is then measured by ELISA according to manufacturers instructions. Total paw protein is also measured using a protein assay kit and the absolute level of IL-1β is normalized to yield a concentration value of ng IL-1β/mg total protein.
On the technique in general: In the carrageenan paw model, swelling and tenderness develop within hours.

By Ki is commonly meant the dissociation constant of the complex between target and ligand, obtained from inhibition or displacement. A low value points to a stronger hold on the target. As a reminder, the IC50 is the concentration that gives 50% inhibition. A word on the ED50: it is the midpoint of the dose-response relation. Regarding `CC/C(=C1\c2ccc(F)cc2OCc2ncccc21)c1cccc(NS(C)(=O)=O)c1` [Compound (I), (E)-N-{3-[1-(8-Fluoro-11H-10-oxa-1-aza-dibenzo[a,d]cyclohepten-5-ylidene)-propyl]-phenyl}-methanesulfonamide], the Ki in experiment [1] is about 6.7 nM. In experiment [2] (Homo sapiens, U-937, LPS 100 ng/ml, average of n=4, read-out: IC50, inhibition of TNF-α expression), the IC50 is about 21 nM. Besides, the “maximal inhibition of the endogenous expression of TNF-α” value in experiment [2] (LPS 100 ng/ml, n=4) is at least 90%. Besides, the ED50 in experiment [3] (read-out: ED50, inhibition of carrageenan induced paw weight gain) was about 2.8 mg/kg; in experiment [3] (read-out: ED50, reduction of paw exudate levels of IL-1β), about 3.2 mg/kg.
